Test results published in ChEMBL document CHEMBL5500375, “Design, synthesis, and evaluation of N1,N3-dialkyldioxonaphthoimidazoliums as antibacterial agents against methicillin-resistant Staphylococcus aureus” (Eur J Med Chem, 2024).
The source made the active and inactive calls. The calls are words filed in the database; no cut-off is given here.

Columns and labels:
[1] = tested on: Bacillus subtilis; assay: Antibacterial agents against Bacillus subtilis PS380 assessed as absence of growth measured after 18 hrs by micro-dilution method; format: functional
[2] = tested on: Staphylococcus aureus; assay: Antibacterial agents against c5-resistant mutant of methicillin-resistant Staphylococcus aureus SA3 m1 assessed as absence of growth measured after 18 hrs by micro-dilution method; format: functional
[3] = In vivo toxicity in Drosophila melanogaster strain Oregon R assessed as survival rate at 0.1 to 1 mg/ml measured upto 72 hrs relative to control; format: organism-based; conditions: Oregon R, at 0.1 to 1 mg/mL, dose 0.1-1 mg/ml
[4] = Cytotoxicity against human HDFa cells assessed as cell survival measured after 72 hrs incubation by Cell Titer-Glo luminescent assay; format: toxicity, cell-based
[5] = tested on: Staphylococcus aureus; assay: Antibacterial agents against methicillin-resistant Staphylococcus aureus USA300 assessed as absence of growth at 0.19 ug/ml measured after overnight incubation under anaerobic condition in presence of N-acetylcysteine by micro-dilution method; format: functional, organism-based; conditions: dose 0.19 µg/ml
[6] = tested on: Staphylococcus aureus; assay: Antibacterial agents against c5-resistant mutant of methicillin-resistant Staphylococcus aureus SA3 m1 assessed as absence of growth at 0.19 ug/ml measured after overnight incubation under anaerobic condition in presence of N-acetylcysteine by micro-dilution method; format: functional, organism-based; conditions: dose 0.19 µg/ml
[7] = tested on: Staphylococcus aureus; assay: Antibacterial agents against c5-resistant mutant of methicillin-resistant Staphylococcus aureus SA3 m4 assessed as absence of growth at 0.19 ug/ml measured after overnight incubation under anaerobic condition in presence of N-acetylcysteine by micro-dilution method; format: functional, organism-based; conditions: dose 0.19 µg/ml
[8] = tested on: Staphylococcus aureus; assay: Antibacterial agents against c5-resistant mutant of methicillin-resistant Staphylococcus aureus SA3 m6 assessed as absence of growth at 0.19 ug/ml measured after overnight incubation under anaerobic condition in presence of N-acetylcysteine by micro-dilution method; format: functional, organism-based; conditions: dose 0.19 µg/ml
[9] = tested on: Staphylococcus aureus; assay: Induction of ROS generation in methicillin-resistant Staphylococcus aureus SA3 using hydroxyphenyl fluorescein at 0.09 ug/ml under anaerobic condition; format: functional, organism-based; conditions: dose 0.09 µg/ml, TDE = time-dependent effect
[10] = tested on: Staphylococcus aureus; assay: Induction of ROS generation in methicillin-resistant Staphylococcus aureus USA300 using hydroxyphenyl fluorescein at 0.19 ug/ml under anaerobic condition; format: functional, organism-based; conditions: dose 0.19 µg/ml
[11] = tested on: Staphylococcus aureus; assay: Anti-biofilim activity against methicillin-resistant Staphylococcus aureus USA300 assessed decrease in biofilm growth at 1 to 10 times of MIC concentration measured after 12 to 24 hrs incubation; format: functional, organism-based; conditions: time 12-24 hrs
[12] = tested on: Staphylococcus aureus; assay: Anti-biofilim activity against methicillin-sensitive Staphylococcus aureus SA1 assessed decrease in biofilm growth at 1 to 10 times of MIC concentration measured after 12 to 24 hrs incubation; format: functional, organism-based; conditions: time 12-24 hrs
[13] = tested on: Staphylococcus aureus; assay: Anti-biofilim activity against methicillin-sensitive Staphylococcus aureus Newman assessed decrease in biofilm growth at 1 to 10 times of MIC concentration measured after 12 to 24 hrs incubation; format: functional, organism-based; conditions: time 12-24 hrs
[14] = tested on: Pseudomonas aeruginosa; assay: Antibacterial agents against gram negative Pseudomonas aeruginosa PA14 assessed as reduction in colony forming unit at 0.78 ug/ml measured upto 10 hrs in presence of 0.2 ug/ml Polymyxin B by LB agar medium method; format: functional; conditions: dose 0.78 µg/ml
[15] = tested on: Escherichia coli; assay: Antibacterial agents against gram negative Escherichia coli MG1655 assessed as reduction in colony forming unit at 0.78 ug/ml measured upto 10 hrs in presence of 0.2 ug/ml Polymyxin B by LB agar medium method; format: functional; conditions: dose 0.78 µg/ml
[16] = tested on: Staphylococcus aureus; assay: Bactericidal activity against methicillin-resistant Staphylococcus aureus SA3 assessed as as reduction in colony forming unit at 0.1 to 0.4 ug/ml measured after 2 to 4 hrs by time-kill assay; format: functional, organism-based; conditions: dose 0.1-0.4 µg/ml, time 2-4 hrs
[17] = tested on: Staphylococcus aureus; assay: Bactericidal activity against methicillin-resistant Staphylococcus aureus SA3 assessed as as reduction in colony forming unit at 0.78 ug/ml measured within 10 hrs by time-kill assay; format: functional; conditions: dose 0.78 µg/ml
[18] = tested on: Staphylococcus aureus; assay: Reduction in virulent activity of methicillin-resistant Staphylococcus aureus SA3 infected in dorsal thorax of Drosophila melanogaster strain Oregon R at 0.2 mg/ml measured upto 72 hrs; format: functional, organism-based
[19] = tested on: Staphylococcus aureus; assay: Antibacterial activity against methicillin-resistant Staphylococcus aureus SA3 assessed as resistance by measuring antibacterial activity after 11 to 20 passages at 0.39 ug/ml by emergence of bacterial resistance assay; format: functional, organism-based; conditions: dose 0.39 µg/ml
[20] = tested on: Staphylococcus aureus; assay: Antibacterial activity against methicillin-resistant Staphylococcus aureus SA3 assessed as fold increase in MIC measured after 16 passages to MIC during first passage; format: functional
[21] = tested on: Staphylococcus aureus; assay: Antibacterial activity against c5-resistant mutant of methicillin-resistant Staphylococcus aureus SA3 m6 assessed as fold increase in MIC measured after 12 passages to MIC during first passage; format: functional

## CCCCCCCCn1c2c([n+](Cc3ccccc3)c1C)C(=O)c1ccccc1C2=O.[Br-]
[1]
  MIC: 0.39 µg/mL
[2]
  MIC: 6.25 µg/mL
[3]
  survival at 72 h: 75%
[4]
  IC50 at 72 h: 1.06 µM
[5]
  Activity: inactive
[6]
  Activity: inactive
[7]
  Activity: inactive
[8]
  Activity: inactive
[9]
  Activity: Tde
[10]
  Activity: Active
[11]
  Activity: Active
[12]
  Activity: Active
[13]
  Activity: Active
[14]
  Activity: >4 log10CFU/ml
[15]
  Activity: 4 log10CFU/ml
[16]
  Activity: inactive
[17]
  Activity: 3 log10CFU/ml
[18]
  Activity: inactive
[19]
  Activity: inactive
[20]
  fold change (FC): 4
[21]
  fold change (FC): 2
